# Assay results published in patent US10653672B2, “Myogenesis promotor, muscle atrophy inhibitor, medical composition and TAZ activator” (National University Corporation Tokyo Medical and Dental …, priority 2014, dated 2020).
# Where “and” joins values, the source holds several entries; their conditions need not be identical. Equal entries are not always repeated.
# What was measured:
# C2C12 cells = test: Proliferation of C2C12 cells by MTT method; type: cell-based, mouse; conditions: for Relative cell proliferation: growth condition, day 1 as 1
# Method: In order to examine whether IBS008738 as an effect on the proliferation of cells, C2C12 cells were cultured under growth condition for 5 days in a medium added with IBS008738 at 0 μM (not added), 0.1 μM, 1 μM and 10 μM, respectively, and the number of the cells was counted each day by MTT (3-(4, 5-dimethylthiazol-2-yl)-2, 5-diphenyl tetrazolium bromide) method. The counting was performed three times, and the obtained numbers were relativized with the number of day 1 as 1.
# [1] = system: binding of Pax3 to Myf5 promoter; test: Chromatin immunoprecipitation, Pax3 on Myf5 promoter; type: cell-based, mouse; conditions: C2C12 cells; 10 μM; differentiation condition 24 hours; protein G sepharose without antibody; listed as IBS008738
# Method: (1) Chromatin immunoprecipitation of MyoD, TEAD and Pax3 was performed on C2C12 cells that were cultured under differentiation condition for 24 hours in a culture medium added with IBS008738 or DMSO at a concentration of 10 μM. Myogenin, connective tissue growth factor (CTGF) and MyfS were detected by PCR, respectively. The immunoprecipitation with protein G sepharose was used as a control (Mock ChIP). […] The line and the error bar in the figure indicate the average value and the standard error, *p<0.05, ***p<0.001, ns refers to not significant.
# The Chromatin immunoprecipitation was performed according to the following process. C2C12 cells were cultured to confluence, and then treated with IBS008738 or DMSO at a concentration of 10 μM in a differentiation medium for 24 hours. The cells were crosslinked in 1.42% (v/v) formaldehyde for 15 minutes, and the reaction was quenched by treating with 125 mM glycine for 5 minutes. […] Shearing was analyzed by agarose gel electrophoresis. […] The immunoprecipitated DNA fragments were isolated using Chelex-100 resin and diluted by 1:2.5 for quantitative PCR analysis. Input normalized relative abundance was determined.
# Balb/c ByJ mice = test: Suppression of dexamethasone-induced muscle atrophy; type: in vivo, mouse
# Method: (1) A 25 mg/mL dexamethasone stock solution in DMSO was prepared. Three Balb/c ByJ mice (6 week, female) were intraperitoneally injected with 20 μL of the dexamethasone stock solution, each day for a week. As a control group, three other individuals were injected with 20 μL of DMSO. On day 9, 11 and 13, each group of the mice was injected with a solution prepared by dissolving 0.3 μL of 10 mM IBS008738 stock solution in 100 μL PBS, on one hindlimb muscle, and with 100 μL PBS on the other hindlimb muscle. The mice were sacrificed at day 14, and the muscle tissues were fixed and stained with hematoxylin and eosin (see FIG. 8D). It was observed that the muscle fibers of the mice administered with dexamethasone were shrinked.
# (2) The cross section of the muscle fibers of the individual intraperitoneally injected with dexamethasone was stained with an anti-laminin antibody and observed. […] The cross-section area of muscle fibers (500 per individual) of the three mice was measured. As a result, the area of the individual injected with IBS008738 was greater than the area of the individual injected with DMSO (see FIG. 9F). The cross-section area of muscle fibers was analyzed with Image J software.
# [2] = system: connective tissue growth factor (CTGF); test: Quantitative real-time PCR, CTGF; type: cell-based, mouse; conditions: C2C12 cells, 10 μM; for Normarized mRNA abundance, CTGF: listed as IBS008738
# Method: (1) Quantitative real-time PCR was performed with C2C12 cells immediately before the induction of muscle formation (0 h), and after culturing under differentiation condition in a culture medium added with IBS008738 or DMSO at a concentration of 10 μM for 24 hours (24 h) and 72 hours (72 h), respectively. […] The line and error bar indicate the average value and the standard error, **p<0.05, and ns refers to not significant.
# (2) Evaluation was also performed under the same condition on the connective tissue growth factor (CTGF) and cyclin D1, as TAZ targets in epidermal cells.
# The quantitative real-time PCR was performed with SYBER Green (Roche) and ABI7500 Realtime PCR system (Applied Biosystems).
smiles,measurement,setting,value
Cc1ccc(-n2cnc(/N=C/N3CCOCC3)c2C(=O)c2ccccc2)cc1 [exemplary compound 1],effect on the proliferation of C2C12 cells,"C2C12 cells; 0.1 μM, 1 μM and 10 μM, 5 days",does not have an effect
same,Relative cell proliferation,"C2C12 cells; 0.1 μM, 24 h",1.00
same,Relative cell proliferation,"C2C12 cells; 0.1 μM, 48 h, listed as IBS008738",2.09 and 2.06 and 2.18
same,Relative cell proliferation,"C2C12 cells; 0.1 μM, 72 h, listed as IBS008738",5.37 and 4.74 and 4.59
same,Relative cell proliferation,"C2C12 cells; 0.1 μM, 120 h, listed as IBS008738",9.01 and 8.76 and 8.78
same,Relative cell proliferation,"C2C12 cells; 1 μM, 24 h",1.00
same,Relative cell proliferation,"C2C12 cells; 1 μM, 48 h, listed as IBS008738",2.41 and 2.05 and 2.07
same,Relative cell proliferation,"C2C12 cells; 1 μM, 72 h, listed as IBS008738",5.11 and 4.54 and 4.46
same,Relative cell proliferation,"C2C12 cells; 1 μM, 120 h, listed as IBS008738",9.13 and 8.80 and 8.79
same,Relative cell proliferation,"C2C12 cells; 10 μM, 24 h",1.00
same,Relative cell proliferation,"C2C12 cells; 10 μM, 48 h, listed as IBS008738",2.09 and 2.07
same,Relative cell proliferation,"C2C12 cells; 10 μM, 72 h, listed as IBS008738",4.70 and 4.90 and 4.92
same,Relative cell proliferation,"C2C12 cells; 10 μM, 120 h, listed as IBS008738",8.63 and 8.99 and 8.56
same,"Input %, Myf5-p, Mock ChIP",[1],0.14% and 0.13% and 0.16%
same,cross-section area of muscle fibers compared with DMSO,"Balb/c ByJ mice; dexamethasone mice, 500 fibers per individual, three mice",greater
same,shrinkage of muscle fibers compared with DMSO,"Balb/c ByJ mice; dexamethasone mice, cross section stained with anti-laminin antibody",more suppressed
same,effect on muscle fibers,"Balb/c ByJ mice; mice intraperitoneally injected with DMSO (no dexamethasone), IBS008738 into hindlimb muscle on day 9, 11 and 13, hematoxylin and eosin",No significant effect
same,shrinkage of muscle fibers,"Balb/c ByJ mice; mice intraperitoneally injected with dexamethasone, IBS008738 into hindlimb muscle on day 9, 11 and 13, hematoxylin and eosin, day 14",partly suppressed
same,gene transcription of CTGF compared with DMSO,[2]; 24 h and 72 h,no significant difference
same,"Normarized mRNA abundance, CTGF",[2]; differentiation condition 24 h,0.32 and 0.30 and 0.25
same,"Normarized mRNA abundance, CTGF",[2]; differentiation condition 72 h,1.76 and 2.01 and 2.04
